Experimental data reported in patent EP0609289B1, “IMIDAZOLE DERIVATIVES AND PHARMACEUTICAL COMPOSITIONS CONTAINING THE SAME” (THE UPJOHN COMPANY, priority 1991, dated 1993).

Columns and labels:
[1] = system: angiotensin II constriction in an isolated rabbit thoracic aorta; test: Antagonism to angiotensin II constriction in an isolated rabbit thoracic aorta (test 3); settings: test compound 10^-6 M for 20 minutes
Method: 3) Antagonism to angiotensin II constriction in an isolated rabbit thoracic aorta
A rectangular strip-like sample of thoracic aorta isolated from an anaesthetized rabbit was prepared, and the sample was suspended at 2.0 g of loaded tension in a Magnus tube filled with Krebs-Henseleitoid nutrition solution which was well aerated with 95% O2-5% CO2, and the constriction tension was measured using an isometric transducer. After the tension of the sample at rest became stable, accumulative administration of angiotensin II was carried out to obtain a concentration-action curve. Thereafter, the sample was washed with the same nutrition solution, then treated with test compound (10^-6 M) for 20 minutes to obtain again a concentration-action curve of angiotensin II. The results were obtained as followed: generated maximum tension at the first accumulative administration of angiotensin II was regarded as 100 %, and the 50 % effective concentration (ED50) was obtained in the presence or absence of the test compound, and pA2 value was calculated according to the following equations: • pA2=-logKB KB=C/{(A'/A)-1} • C; concentration of the test compound (M) • A'; ED50 in the presence of test compound (M) • A; ED50 in the absence of the test compound (M)

[2] = system: blood pressure increase by angiotensin II; test: Blood pressure increase by angiotensin II-inhibiting test, intraduodenal administration, anesthetized normotensive rat; type: in vivo
[3] = system: blood pressure increase by angiotensin II; test: Antagonism to blood pressure increase by angiotensin II in a spine destroyed (pithed) rat (test 4); type: in vivo, Wistar rat; settings: intravenous administration, 3µg/kg angiotensin II, read-out: Inhibition of blood pressure increase by angiotensin II in pithed rat ED50(mg/kg) (test 4)
Excerpt: 4) Antagonism to blood pressure increasing by angiotensin II in a spine destroyed rat
Wistar rat anaesthetized with pentobarbital was fixed at dorsal position, and a cannula for measuring blood pressure was inserted into sinister arteria carotis communis, and a cannula for administration of the test compound into dexter external jugular vein and a cannula for administration of angiotensin II into sinister external jugular vein, ambilateral nervus vagus was cut, and artificial respiration was carried out. A thin bar made of metal was stabbed into spinal column through sinister orbita to destroy spine. Blood pressure was recorded on polygraph via pressure transducer from an arterial cannula. After blood pressure was stable for more than 30 min., 3µg/kg of angiotensin II was administered intravenously four times every 15 min, and every 5 min. before the administration of angiotensin II from the second administration onward, a solvent, a lower dose of the test compound, and a higher dose of the test compound were administered intravenously in this order to observe the blood pressure increasing response by angiotensin II. ED50 values were calculated from the inhibiting rate when the first blood pressure increase by angiotensin II was regarded as 100 %.

Angiotensin II receptor = test: In vitro angiotensin II mesenteric artery receptor binding assay (test 1); settings: rat mesenteric artery membrane fraction, 0.2 nM 125I-Ang II, 22°C, 90 minutes
Procedure, shortened: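 Rat mesenteric artery membranes ([…] protein equivalent) incubated with 0.2 nM ^125I-Ang II and compound, 90 min at 22°C, pH 7.2 Tris buffer. Bound radioactivity counted after filtration; nonspecific binding defined with 1 µM unlabeled angiotensin II.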

[4] = system: hypertensive rat model (SHR); test: Oral administration test in hypertensive rat model (SHR); type: in vivo; settings: 10 mg/kg oral administration

| IC50 (Angiotensin II receptor) [nM] | SMILES | Inhibition of rabbit aorta constriction pA2 (test 3) [1] | ED50 [2] [mg/kg] | action lasting time ([2]; 1 mg/kg) | ED50 [3] [mg/kg] | vasodepressor activity [4] | action lasting time ([2]; 3 mg/kg) |
| --- | --- | --- | --- | --- | --- | --- | --- |
| 3.3 | CCCCc1nc2c(n1Cc1ccc(-c3ccccc3-c3nnn[nH]3)cc1)C(=O)N1N(C2)C2(CC)CCC1(CC)CC2 [Compound No. 455, 2-n-butyl-5,8-diethyl-5,8-ethano-5,6,7,8-tetrahydro-1-[{2'-(1H-tetrazol-5-yl)biphenyl-4-yl}methyl]-1H,4H-1,3,4a,8a-tetraza-cyclopentanaphthalene-9-one] | 8.82 | 0.81 | not less than 5 hours | 0.64 | – | – |
| 1.9 | CCCCc1nc2c(n1Cc1ccc(-c3ccccc3-c3nn[nH]n3)cc1)C(=O)N1N(C2)C2(C)CCC1(C)CC2 [Compound No. 451, 2-n-butyl-5,8-dimethyl-5,8-ethano-5,6,7,8-tetrahydro-1-[{2'-(1H-tetrazol-5-yl)biphenyl-4-yl}methyl]-1H,4H-1,3,4a,8a-tetraza-cyclopentanaphthalene-9-one] | 10.04 | 0.84 | not less than 5 hours | 0.63 | significant vasodepressor activity over 24 hours | – |
| 3.5 | CCCc1nc2c(n1Cc1ccc(-c3ccccc3-c3nnn[nH]3)cc1)C(=O)N1N(C2)C2(CC)CCC1(CC)CC2 [Compound No. 454, 5,8-diethyl-5,8-ethano-2-n-propyl-5,6,7,8-tetrahydro-1-[{2'-(1H-tetrazol-5-yl)biphenyl-4-yl}methyl]-1H,4H-1,3,4a,8a-tetraza-cyclopentanaphthalene-9-one] | 10.34 | 1.28 | – | 0.34 | – | not less than 5 hours |

The remaining lines, values behind:

| SMILES | IC50 (Angiotensin II receptor) [nM] | Inhibition of rabbit aorta constriction pA2 (test 3) [1] | ED50 [2] [mg/kg] | action lasting time ([2]; 1 mg/kg) | ED50 [3] [mg/kg] | vasodepressor activity [4] | action lasting time ([2]; 3 mg/kg) |
| --- | --- | --- | --- | --- | --- | --- | --- |
| CCCc1nc2c(=O)n3n(c(=O)c2n1Cc1ccc(-c2ccccc2-c2nn[nH]n2)cc1)C1CCC3(C(=O)NC(C)(C)C)CC1 [Compound No. 235, 4,9-dioxo-5,8-ethano-2-n-propyl-5,6,7,8-tetrahydro-1-[{2'-(1H-tetrazol-5-yI)biphenyl-4-yl}methyl]-1H-1,3,4a,8a-tetraza-cyclopentanaphthalene-5-carboxy-N-t-butylamide] | 21 | 9.62 | – | – | 0.07 | – | – |
| CCCc1nc2c(=O)n3n(c(=O)c2n1Cc1ccc(-c2ccccc2-c2nnn[nH]2)cc1)C(C)CCC3C(=O)NC(C)(C)C (stereo not drawn) [Compound No. 207, 4,9-dioxo-8-methyl-2-n-propyl-5,6,7,8-tetrahydro-1-[{2'-(1H-tetrazol-5-yl)biphenyl-4-yl}methyl]-1H-1,3,4a,8a-tetraza-cyclopentanaphthalene-5-carboxy-N-t-butylamide] | 3.9 | 10.1 | – | – | 0.033 | – | – |
| CCCc1nc2c(=O)n3n(c(=O)c2n1Cc1ccc(-c2ccccc2-c2nn[nH]n2)cc1)C1CCC3CC1 [Compound No. 108, 5,8-ethano-2-n-propyl-5,6,7,8-tetrahydro-1-[(2'-(1H-tetrazol-5-yl)biphenyl-4-yl)methyl]-1H-1,3,4a,8a-tetraza-cyclopentanaphthalene-4,9-dione] | 1.9 | 9.53 | – | – | 0.069 | – | – |
| CCCCc1nc2c(=O)n3n(c(=O)c2n1Cc1ccc(-c2ccccc2-c2nn[nH]n2)cc1)C1CCC3CC1 [Compound No. 109, 2-n-butyl-5,8-ethano-5,6,7,8-tetrahydro-1-[(2'-(1H-tetrazol-5-yl)biphenyl-4-yl)methyl]-1H-1,3,4a,8a-tetraza-cyclopentanaphthalene-4,9-dione] | 2.8 | 9.49 | – | – | 0.21 | – | – |
| CCCc1nc2c(=O)n3n(c(=O)c2n1Cc1ccc(-c2ccccc2-c2nnn[nH]2)cc1)C1CCC3(COCC(=O)OC(C)(C)C)CC1 [Compound No. 223, 5-t-butoxycarboxylmethoxymethyl-5,8-ethano-2-n-propyl-5,6,7,8-tetrahydro-1-[{2'-(1H-tetrazol-5-yl)biphenyl-4-yl}methyl]-1H-1,3,4a,8a-tetraza-cyclopentanaphthalene-4,9-dione] | 9.8 | 9.68 | – | – | 0.1 | – | – |
| CCCc1nc2c(n1Cc1ccc(-c3ccccc3-c3nn[nH]n3)cc1)C(=O)N1N(C2)C2(C)CCC1(C)CC2 [Compound No. 450, 5,8-dimethyl-5,8-ethano-2-n-propyl-5,6,7,8-tetrahydro-1-[{2'-(1H-tetrazol-5-yl)biphenyl-4-yl}methyl)-1H,4H-1,3,4a,8a-tetraza-cyclopentanaphthalene-9-one] | 1.7 | 9.92 | 0.95 | – | 0.32 | – | not less than 5 hours |
